According to PubChem BioAssay (NCI):
Where “and” joins values, the source holds several entries; their conditions need not be identical. Identical values can stand only once.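 Following 48 hours of exposure in 96-well plates, responses at five concentrations were used to interpolate endpoints linearly. Here, GI50 denotes the concentration required for 50% inhibition of growth. At the TGI there is no net growth.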

Legend:
Test in all cases: NCI anticancer screen, dose series, 48 h
SF-268 CNS = system: SF-268 CNS
SNB-19 CNS = system: SNB-19 CNS
786-0 renal = system: 786-0 renal
SK-MEL-2 melanoma = system: SK-MEL-2 melanoma
NCI-H226 lung = system: NCI-H226 lung
SK-OV-3 ovarian = system: SK-OV-3 ovarian
HOP-92 NSCLC = system: HOP-92 NSCLC
EKVX NSCLC = system: EKVX NSCLC
KM12 colon = system: KM12 colon
ACHN renal = system: ACHN renal

Row | Structure (SMILES) | GI50 (SF-268 CNS) | TGI (SF-268 CNS) | GI50 (SNB-19 CNS) | TGI (SNB-19 CNS) [µM] | GI50 (786-0 renal) | TGI (786-0 renal) [µM] | GI50 (SK-MEL-2 melanoma) | TGI (SK-MEL-2 melanoma) | GI50 (NCI-H226 lung) | TGI (NCI-H226 lung) | GI50 (SK-OV-3 ovarian) | TGI (SK-OV-3 ovarian) | GI50 (HOP-92 NSCLC) | TGI (HOP-92 NSCLC) | GI50 (EKVX NSCLC) | TGI (EKVX NSCLC) [µM] | GI50 (KM12 colon) | TGI (KM12 colon) | GI50 (ACHN renal) | TGI (ACHN renal) [µM]
1 | CC1=C(c2ccccc2)C(O)(c2ccccc2)C(C)C1=O (stereo not given) | 27.4 µM | > 100 µM | 35.5 µM | > 100 | 18.9 µM | > 100 | 29.7 µM | > 100 µM | 33.4 µM | > 100 µM | 20 µM | > 100 µM | 4.07 µM | 65 µM | 35.1 µM | > 100 | 7.52 µM | > 100 µM | 35.6 µM | > 100
2 | Nc1ccc(C(=O)N/C(=C\c2cccc([N+](=O)[O-])c2)c2nc3[nH]c(=S)[nH]c(=O)c3[nH]2)cc1 |  | > 100 µM |  | > 93.1 |  | > 93.1 |  | > 100 µM |  | > 96.7 µM |  | 56.2 µM |  | 64.9 µM |  | > 100 |  | > 100 µM |  | > 100
3 | COC(=O)N/N=C(\C)c1c(O)cc(C)oc1=O |  | > 100 µM |  | > 100 |  | > 100 |  | > 100 µM |  | > 100 µM |  | > 100 µM |  | > 100 µM |  | > 100 |  | > 100 µM |  | > 100
4 | Cc1ccccc1NC(=O)c1sc2nc(C)c(C(=O)/C=C/c3ccccc3)cc2c1N | 1.2 µM | 3.58 µM | 1.16 µM | 3.58 | 0.82 µM | 1.77 | 1.81 µM | 8.59 µM | 1.07 µM | 2.35 µM | 2.5 µM | 25.9 µM | 1.48 µM | 7.26 µM | 3.86 µM | 11.1 | 0.901 µM | 2.02 µM | 0.927 µM | 1.86
5 | CNC(=O)c1c(NC(=O)c2ccc(C(C)(C)C)cc2)sc2c1CCC(=O)C2 | 0.414 µM | 1.85 µM | 0.321 µM | 1.39 | 0.434 µM | 1.83 | 0.508 µM | 1.96 µM | 0.558 µM | 1.99 µM | 1.4 µM | 6.17 µM | 0.358 µM | 2.03 µM | 0.381 µM | 1.7 | 0.313 µM | 1.34 µM | 0.203 µM | 0.922
6 | CC1(C)CNc2cc(NC(=O)c3cccnc3NCc3ccncc3)ccc21 | 28.1 µM | > 100 µM | 48.4 µM | > 100 | 45.1 µM | > 100 | 17.2 µM | 47.8 µM | 11 µM | 46.1 µM | 26.5 µM | > 100 µM | 19.4 µM | 80.6 µM | 23.6 µM | > 95.2 | 38 µM | > 100 µM | 10.6 µM | > 100
7 | c1ccc(C2OC3(CCC[C@H]4C[C@H]43)O[C@H]2c2ccccc2)cc1 (stereo not given in full) |  | > 100 µM |  | > 100 |  | > 100 |  | 39.6 µM |  | > 100 µM |  | > 100 µM |  | 66.2 µM |  | > 100 |  | > 100 µM |  | > 100
8 | CNC(=O)c1cc(Oc2ccc(NC(=O)Nc3ccc(Cl)c(C(F)(F)F)c3)c(F)c2)ccn1 | 2.93 µM and 3.02 µM | 14 µM and > 10 µM | 4.27 µM and 4.06 µM | > 41.6 | 3.39 µM and 3.06 µM | > 83.2 | 0.664 µM and 0.336 µM | 2.13 µM and 1.86 µM | 2.15 µM and 0.988 µM | 8.01 µM and 8.05 µM | 3.2 µM and 2.43 µM | 12.3 µM and 8.49 µM | 0.822 µM and 0.74 µM | 5.55 µM and 5.15 µM | 2.96 µM and 2.68 µM | > 44 | 1.9 µM and 1.49 µM | 7.86 µM and > 10 µM | 3.29 µM and 2.88 µM | > 44.9
9 | COc1ccc2c(c1OC)CO[C@@H]2[C@H]1c2c(cc3c(c2OC)OCO3)CCN1S(=O)(=O)c1cn(C)cn1 | 5.64 µM | > 100 µM | 1.76 µM | > 100 | 0.968 µM | > 100 | 2.17 µM | > 100 µM | 0.462 µM | 4.48 µM | 2.57 µM | > 100 µM | 0.783 µM | 87.4 µM | 13.1 µM | > 100 | 0.684 µM | > 100 µM | 1.73 µM | > 100
10 | CC1=C(/C=C/C(C)=C/C2CC(N(C)C)=CC(=O)O2)C(C)(C)CCC1 (stereo not given) |  | 40.6 µM |  | 28.6 |  | 29.2 |  | 27.4 µM |  | 25.8 µM |  | 30.3 µM |  | 31.1 µM |  | 27.9 |  | 31.2 µM |  | 24.8
11 | O=C1C(c2ccc(Br)cc2)=[N+]([O-])c2ccccc21 |  | 32.3 µM |  | 42.3 |  | 30.9 |  | 57.6 µM |  | 35.3 µM |  | > 100 µM |  | 20.1 µM |  | 29.5 |  | 30.4 µM |  | 26.2
12 | Cc1cc2c(cc1Cl)S/C(=C/C(=O)O)C(Nc1ccc3ncsc3c1)=NS2(=O)=O | > 23.9 µM | > 74.9 µM | > 34.3 µM | > 56.2 | 8.57 µM | 22.1 | > 29.3 µM | > 61.3 µM | 25.3 µM | > 65.3 µM | > 33.4 µM | > 52 µM | 7.76 µM | 21.5 µM | > 16.9 µM | > 52.8 | 27.5 µM | > 48 µM | > 52.6 µM | > 68
13 | O=C(CCCN1CCC(O)(c2ccc(Cl)cc2)CC1)c1ccc(F)cc1 |  | > 100 µM |  | > 100 |  | 39.8 |  | 39.5 µM |  | > 100 µM |  | > 100 µM |  | > 100 µM |  | > 100 |  | 39.1 µM |  | > 100
14 | COc1ccc2c(c1)c(-c1nc(-c3c[nH]c4ccncc34)cs1)cn2C | 1.77 µM | 3.37 µM | 1.85 µM | 3.36 | 1.7 µM | 3.24 | 1.84 µM | 3.4 µM | 1.88 µM | 3.9 µM | 1.88 µM | 3.37 µM | 1.64 µM | 3.33 µM | 1.76 µM | 3.4 | 1.73 µM | 3.2 µM | 1.77 µM | 3.17
15 | Cc1ccc(S(=O)(=O)SC(C)(C)C)cc1 |  | > 100 µM |  | > 100 |  | 31.8 |  | > 88.3 µM |  | > 100 µM |  | > 100 µM |  | > 100 µM |  | > 63.9 |  | > 91.4 µM |  | 98.1
16 | O=[N+]([O-])C(/C=N/Nc1ccccc1)/C=N/Nc1ccccc1 |  | > 100 µM |  | > 100 |  | > 100 |  | > 100 µM |  | > 100 µM |  | > 100 µM |  | > 100 µM |  | > 100 |  | > 100 µM |  | > 100
17 | CC1=C(SCCC(=O)OC(C[Se]C2=C(C)C(=O)c3ccccc3C2=O)C(=O)NCCCCCC(=O)OCc2ccccc2)C(=O)c2ccccc2C1=O (stereo not given) | 7.33 µM | 19.9 µM | 3.82 µM | 14 | 4.68 µM | 14 | 5.5 µM | 18.9 µM | 19.5 µM | 51.3 µM | 7.1 µM | 19.7 µM | 2.7 µM | 7.89 µM | 3.62 µM | 17.8 | 1.4 µM | 4.07 µM | 12.1 µM | 27.6
